Assay results: US6599521B1 (priority 2000, dated 2003)

What was measured:
S. aureus MN8 = type: cell-based, Staphylococcus aureus; details: 24 hours at 35° C.
TSST-1 = type: cell-based, Staphylococcus aureus; details: 24 hours at 35° C.

CCCCCCCCCCCCOCCOCCOCCOCCO [Laureth-4]
Final [S. aureus] (× 10^9 CFU/ml) (S. aureus MN8): 4.57 × 10^9 CFU/ml | TSST-1 (TSST-1): 531.8 ng/mL

CCCCCCCCCCCCCCCCCCOCCOCCO [Steareth-2]
Final [S. aureus] (× 10^9 CFU/ml) (S. aureus MN8): 5.76 × 10^9 CFU/ml | TSST-1 (TSST-1): 680.7 ng/mL

PPG-5 Laureth-5
Final [S. aureus] (× 10^9 CFU/ml) (S. aureus MN8): 3.82 × 10^9 CFU/ml | TSST-1 (TSST-1): 609.2 ng/mL
